According to patent US9522886B2, “Pyridine derivatives” (Hoffmann-La Roche Inc., priority 2012, dated 2016):
pEC50: −log10 of the molar value.

How the values were obtained:
human CB1 receptors = human CB1 receptors (Homo sapiens (Human), UniProt P21554); assay: cAMP assay, CHO cells expressing human CB1 receptors; type: cell-based; conditions: functional cAMP assay, CHO cells expressing human CB1; read-out: human CB1 EC50
Experimental: (§1) CHO cells expressing human CB1 or CB2 receptors are seeded 17-24 hours prior to the experiment 50.000 cells per well in a black 96 well plate with flat clear bottom (Corning Costar #3904) in DMEM (Invitrogen No. 31331), 1×HT supplement, with 10% fetal calf serum and incubated at 5% CO2 and 37° C. in a humidified incubator. The growth medium was exchanged with Krebs Ringer Bicarbonate buffer with 1 mM IBMX and incubated at 30° C. for 30 min. Compounds were added to a final assay volume of 100 μl and incubated for 30 min at 30° C. Using the cAMP-Nano-TRF detection kit the assay (Roche Diagnostics) was stopped by the addition of 50 μl lysis reagent (Tris, NaCl, 1.5% Triton X100, 2.5% NP40, 10% NaN3) and 50 μl detection solutions (20 μM mAb Alexa700-cAMP 1:1, and 48 μM Ruthenium-2-AHA-cAMP) and shaken for 2 h at room temperature. The time-resolved energy transfer is measured by a TRF reader (Evotec Technologies GmbH), equipped with a ND:YAG laser as excitation source. The plate is measured twice with the excitation at 355 nm and at the emission with a delay of 100 ns and a gate of 100 ns, total exposure time 10 s at 730 (bandwidth 30 nm) or 645 nm (bandwidth 75 nm), respectively.
(§2) EC50 values were determined using Activity Base analysis (ID Business Solution, Limited).

human CB2 receptors = human CB2 receptors (Homo sapiens (Human), UniProt P34972); assay: cAMP assay, CHO cells expressing human CB2 receptors; type: cell-based; conditions: functional cAMP assay, CHO cells expressing human CB2; read-out: human CB2 EC50
Experimental: as §1, §2

human CB2 receptors, sequence (P34972 whole entry): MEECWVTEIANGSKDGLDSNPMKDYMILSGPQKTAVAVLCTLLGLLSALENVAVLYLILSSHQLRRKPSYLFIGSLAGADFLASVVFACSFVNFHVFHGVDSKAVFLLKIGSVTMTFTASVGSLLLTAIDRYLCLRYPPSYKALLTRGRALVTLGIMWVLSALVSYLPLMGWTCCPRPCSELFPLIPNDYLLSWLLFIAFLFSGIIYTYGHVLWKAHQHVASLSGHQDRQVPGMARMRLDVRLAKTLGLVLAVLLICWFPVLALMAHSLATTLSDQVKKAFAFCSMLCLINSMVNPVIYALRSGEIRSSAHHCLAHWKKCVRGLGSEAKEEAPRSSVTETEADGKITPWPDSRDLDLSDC
human CB1 receptors, sequence (P21554 whole entry): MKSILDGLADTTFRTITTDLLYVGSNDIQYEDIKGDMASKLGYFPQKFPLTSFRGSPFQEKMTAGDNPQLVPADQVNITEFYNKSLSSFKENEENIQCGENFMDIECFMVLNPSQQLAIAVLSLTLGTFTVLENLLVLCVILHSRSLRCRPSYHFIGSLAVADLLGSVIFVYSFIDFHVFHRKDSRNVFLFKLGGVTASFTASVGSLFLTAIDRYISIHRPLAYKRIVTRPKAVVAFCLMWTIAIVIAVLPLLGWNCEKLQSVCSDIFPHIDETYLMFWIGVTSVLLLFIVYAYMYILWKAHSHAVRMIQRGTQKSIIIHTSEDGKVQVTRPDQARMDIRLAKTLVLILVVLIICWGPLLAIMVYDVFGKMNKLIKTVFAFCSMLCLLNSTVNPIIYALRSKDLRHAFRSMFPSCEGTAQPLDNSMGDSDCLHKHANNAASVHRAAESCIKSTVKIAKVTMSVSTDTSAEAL

Row | SMILES | pEC50 (human CB1 receptors) | pEC50 (human CB2 receptors)
1 | CC(C)CC(CNC(=O)c1ccc(N2CC(F)(F)C2)c(OCC2CC2)n1)C(=O)O (centres unmarked) [Example 11, 2-[({[6-(Cyclopropylmethoxy)-5-(3,3-difluoroazetidin-1-yl)pyridin-2-yl]carbonyl}amino)methyl]-4-methylpentanoic acid] | < 5.00 | 6.01
2 | CC(C)[C@H](CC(N)=O)NC(=O)c1ccc(N2CC(F)(F)C2)c(OCC2CC2)n1 [Example 19, 6-Cyclopropylmethoxy-5-(3,3-difluoro-azetidin-1-yl)-pyridine-2-carboxylic acid ((S)-1-carbamoylmethyl-2-methyl-propyl)-amide] | < 5.00 | 8.49
3 | NC(=O)[C@H]1CCCC[C@H]1NC(=O)c1ccc(N2CC(F)(F)C2)c(OCC2CC2)n1 [Example 21, (−)-cis-6-Cyclopropylmethoxy-5-(3,3-difluoro-azetidin-1-yl)-pyridine-2-carboxylic acid (2-carbamoyl-cyclohexyl)-amide] | < 5.00 | 6.39
4 | CCOC(=O)CC(CC(C)C)NC(=O)c1ccc(C2CC2)c(OCC2CC2)n1 (centres unmarked) [Example 22, 3-[(5-Cyclopropyl-6-cyclopropylmethoxy-pyridine-2-carbonyl)-amino]-5-methyl-hexanoic acid ethyl ester] | < 5.00 | 7.92
5 | NC(=O)CC1(NC(=O)c2ccc(C3CC3)c(OCC3CC3)n2)COC1 [Example 23, 5-Cyclopropyl-6-cyclopropylmethoxy-pyridine-2-carboxylic acid (3-carbamoylmethyl-oxetan-3-yl)-amide] | < 5.00 | 8.85
6 | CC(C)C[C@@H](CC(N)=O)NC(=O)c1ccc(C2CC2)c(OCC2CC2)n1 [Example 24, (−)-5-Cyclopropyl-6-cyclopropylmethoxy-pyridine-2-carboxylic acid (1-carbamoylmethyl-3-methyl-butyl)-amide] | < 5.00 | 8.52
7 | CC(C)C[C@H](CC(N)=O)NC(=O)c1ccc(C2CC2)c(OCC2CC2)n1 [Example 25, (+)-5-Cyclopropyl-6-cyclopropylmethoxy-pyridine-2-carboxylic acid (1-carbamoylmethyl-3-methyl-butyl)-amide] | < 5.00 | 8.37
8 | NC(=O)CC1(NC(=O)c2ccc(N3CC(F)(F)C3)c(OCC3CC3)n2)COC1 [Example 26, 6-Cyclopropylmethoxy-5-(3,3-difluoro-azetidin-1-yl)-pyridine-2-carboxylic acid (3-carbamoylmethyl-oxetan-3-yl)-amide] | < 5.00 | 8.25
9 | CC(C)(C)[C@@H](CC(N)=O)NC(=O)c1ccc(C2CC2)c(OCC2CC2)n1 [Example 29, 5-Cyclopropyl-6-cyclopropylmethoxy-pyridine-2-carboxylic acid ((R)-1-carbamoylmethyl-2,2-dimethyl-propyl)-amide] | < 5.00 | 7.63
10 | NC(=O)CC(NC(=O)c1ccc(C2CC2)c(OCC2CC2)n1)C1CCOCC1 (centres unmarked) [Example 30, 5-Cyclopropyl-6-cyclopropylmethoxy-pyridine-2-carboxylic acid [2-carbamoyl-1-(tetrahydro-pyran-4-yl)-ethyl]-amide] | < 5.00 | 8.08
11 | CC(Oc1nc(C(=O)NC2(CC(N)=O)COC2)ccc1C1CC1)C(F)(F)F (centres unmarked) [Example 33, 5-Cyclopropyl-6-(2,2,2-trifluoro-1-methyl-ethoxy)-pyridine-2-carboxylic acid (3-carbamoylmethyl-oxetan-3-yl)-amide] | < 5.00 | 6.84
12 | CC(C)(C)[C@H](CC(N)=O)NC(=O)c1ccc(C2CC2)c(OCC2CC2)n1 [Example 35, 5-Cyclopropyl-6-cyclopropylmethoxy-pyridine-2-carboxylic acid ((S)-1-carbamoylmethyl-2,2-dimethyl-propyl)-amide] | 6.68 | 9.22
13 | CC(C)CS(=O)(=O)c1nc(C(=O)NC2(CC(N)=O)COC2)ccc1C1CC1 [Example 36, 5-Cyclopropyl-6-(2-methyl-propane-1-sulfonyl)-pyridine-2-carboxylic acid (3-carbamoylmethyl-oxetan-3-yl)-amide] | < 5.00 | 6.59
14 | CNC(=O)CC1(NC(=O)c2ccc(N3CC(F)(F)C3)c(OCC3CC3)n2)COC1 [Example 37, 6-Cyclopropylmethoxy-5-(3,3-difluoro-azetidin-1-yl)-pyridine-2-carboxylic acid (3-methylcarbamoylmethyl-oxetan-3-yl)-amide] | < 5.00 | 6.44
15 | CNC(=O)CC1(NC(=O)c2ccc(C3CC3)c(OCC3CC3)n2)COC1 [Example 38, 5-Cyclopropyl-6-cyclopropylmethoxy-pyridine-2-carboxylic acid (3-methylcarbamoylmethyl-oxetan-3-yl)-amide] | < 5.00 | 7.00
16 | CNC(=O)CC1(NC(=O)c2ccc(C(F)(F)F)c(OCC3CC3)n2)COC1 [Example 39, 6-Cyclopropylmethoxy-5-trifluoromethyl-pyridine-2-carboxylic acid (3-methylcarbamoylmethyl-oxetan-3-yl)-amide] | < 5.00 | 6.22
17 | CN(C)C(=O)CC1(NC(=O)c2ccc(C3CC3)c(OCC3CC3)n2)COC1 [Example 40, 5-Cyclopropyl-6-cyclopropylmethoxy-pyridine-2-carboxylic acid (3-dimethylcarbamoylmethyl-oxetan-3-yl)-amide] | < 5.00 | 6.46
18 | CN(C)C(=O)CC1(NC(=O)c2ccc(N3CC(F)(F)C3)c(OCC3CC3)n2)COC1 [Example 41, 6-Cyclopropylmethoxy-5-(3,3-difluoro-azetidin-1-yl)-pyridine-2-carboxylic acid (3-dimethylcarbamoylmethyl-oxetan-3-yl)-amide] | < 5.00 | 6.53
19 | CN(C)C(=O)CC1(NC(=O)c2ccc(C(F)(F)F)c(OCC3CC3)n2)COC1 [Example 42, 6-Cyclopropylmethoxy-5-trifluoromethyl-pyridine-2-carboxylic acid (3-dimethylcarbamoylmethyl-oxetan-3-yl)-amide] | < 5.00 | 6.01
20 | NC(=O)C[C@@H](NC(=O)c1ccc(C2CC2)c(OCC2CC2)n1)c1cccc(Cl)c1 [Example 43, 5-Cyclopropyl-6-cyclopropylmethoxy-pyridine-2-carboxylic acid [(R)-2-carbamoyl-1-(3-chloro-phenyl)-ethyl]-amide] | < 5.00 | 6.98
21 | CC(C)[S+]([O-])c1nc(C(=O)NC2(CC(N)=O)COC2)ccc1Br (centres unmarked) [Example 44, 5-Bromo-6-(propane-2-sulfinyl)-pyridine-2-carboxylic acid (3-carbamoylmethyl-oxetan-3-yl)-amide] | < 5.00 | 6.38
22 | COC(=O)CC1(NC(=O)c2ccc(C3CC3)c(OCC3CC3)n2)CCN(C(=O)OC(C)(C)C)CC1 [Example 45, 4-[(5-Cyclopropyl-6-cyclopropylmethoxy-pyridine-2-carbonyl)-amino]-4-methoxycarbonylmethyl-piperidine-1-carboxylic acid tert-butyl ester] | < 5.00 | 6.63
23 | NC(=O)CC1(NC(=O)c2ccc(OC(F)(F)F)c(OCC3CC3)n2)COC1 [Example 46, 6-Cyclopropylmethoxy-5-trifluoromethoxy-pyridine-2-carboxylic acid (3-carbamoylmethyl-oxetan-3-yl)-amide] | < 5.00 | 7.50
24 | NC(=O)CC1(NC(=O)c2ccc(OCC3CC3)c(Cl)n2)COC1 [Example 47, 6-Chloro-5-cyclopropylmethoxy-pyridine-2-carboxylic acid (3-carbamoylmethyl-oxetan-3-yl)-amide] | < 5.00 | 6.10
25 | CC(C)(CC(N)=O)NC(=O)c1ccc(N2CC(F)(F)C2)c(OCC2CC2)n1 [Example 48, 6-Cyclopropylmethoxy-5-(3,3-difluoro-azetidin-1-yl)-pyridine-2-carboxylic acid (2-carbamoyl-1,1-dimethyl-ethyl)-amide] | < 5.00 | 8.04
26 | NC(=O)CC1(NC(=O)c2ccc(C3CC3)c(OCC(F)(F)C(F)(F)F)n2)COC1 [Example 49, 5-Cyclopropyl-6-(2,2,3,3,3-pentafluoro-propoxy)-pyridine-2-carboxylic acid (3-carbamoylmethyl-oxetan-3-yl)-amide] | < 5.00 | 7.90
27 | COC(=O)CC1(NC(=O)c2ccc(N3CC(F)(F)C3)c(OCC3CC3)n2)CNC(=O)C1 (centres unmarked) [Example 50, (3-{[6-Cyclopropylmethoxy-5-(3,3-difluoro-azetidin-1-yl)-pyridine-2-carbonyl]-amino}-5-oxo-pyrrolidin-3-yl)-acetic acid methyl ester] | < 5.00 | 6.37
28 | CCOC(=O)CC1(NC(=O)c2ccc(N3CC(F)(F)C3)c(OCC3CC3)n2)CS(=O)(=O)C1 [Example 51, (3-{[6-Cyclopropylmethoxy-5-(3,3-difluoro-azetidin-1-yl)-pyridine-2-carbonyl]-amino}-1,1-dioxo-1λ6-thietan-3-yl)-acetic acid ethyl ester] | < 5.00 | 7.24
